In PubChem BioAssay (NCI):
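Cultured in 96-well plates, cells were exposed to test compound for 48 hours across five concentrations. GI50 = concentration required for 50% inhibition of growth. Definition used: TGI = concentration required for complete inhibition of growth.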

Key:
Assay in all cases: NCI tumour cell line growth inhibition, 48 h
[1] = test system: RXF 393 renal
[2] = test system: K-562 leukemia
[3] = test system: NCI-H23 lung
[4] = test system: HCC-2998 colon
[5] = test system: IGROV1 ovarian
[6] = test system: OVCAR-4 ovarian
[7] = test system: A498 renal
[8] = test system: M14 melanoma
[9] = test system: LXFL 529 NSCLC
[10] = test system: SF-539 CNS
[11] = test system: DMS 273 small cell lung
[12] = test system: SF-295 CNS
[13] = test system: SK-OV-3 ovarian
[14] = test system: SW-620 colon
[15] = test system: UACC-257 melanoma
[16] = test system: SK-MEL-2 melanoma
[17] = test system: U251 CNS
[18] = test system: OVCAR-5 ovarian
[19] = test system: ACHN renal
[20] = test system: SK-MEL-28 melanoma
[21] = test system: LOX IMVI melanoma
[22] = test system: SNB-19 CNS
[23] = test system: DLD-1 colon
[24] = test system: HOP-18 NSCLC
[25] = test system: OVCAR-3 ovarian
[26] = test system: A549 NSCLC
[27] = test system: DMS 114 small cell lung
[28] = test system: HCT-116 colon
[29] = test system: KM20L2 colon
[30] = test system: HCT-15 colon
[31] = test system: HT29 colon
[32] = test system: KM12 colon
[33] = test system: UACC-62 melanoma
[34] = test system: SK-MEL-5 melanoma
[35] = test system: XF 498 CNS
[36] = test system: SN12C renal
[37] = test system: HOP-92 NSCLC
[38] = test system: 786-0 renal
[39] = test system: TK-10 renal
[40] = test system: RPMI-8226 leukemia
[41] = test system: RXF-631 renal
[42] = test system: COLO 205 colon
[43] = test system: HL-60(TB) leukemia
[44] = test system: OVCAR-8 ovarian
[45] = test system: EKVX NSCLC
[46] = test system: MALME-3M melanoma
[47] = test system: SR leukemia
[48] = test system: NCI-H460 lung
[49] = test system: UO-31 renal
[50] = test system: HOP-62 NSCLC
[51] = test system: M19-MEL melanoma
[52] = test system: SF-268 CNS
[53] = test system: NCI-H522 lung
[54] = test system: SNB-75 CNS

Structure (SMILES): C[N+](C)(C)c1cc[c]([Sn]([c]2ccc([N+](C)(C)C)cc2)([c]2ccc([N+](C)(C)C)cc2)[c]2ccc([N+](C)(C)C)cc2)cc1
- GI50 [1]: > 100 µM
- TGI [1]: > 100 µM
- GI50 [2]: > 100 µM
- TGI [2]: > 100 µM
- GI50 [3]: > 100 µM
- TGI [3]: > 100 µM
- GI50 [4]: > 100 µM
- TGI [4]: > 100 µM
- GI50 [5]: > 100 µM
- TGI [5]: > 100 µM
- GI50 [6]: > 100 µM
- TGI [6]: > 100 µM
- GI50 [7]: > 100 µM
- TGI [7]: > 100 µM
- GI50 [8]: > 100 µM
- TGI [8]: > 100 µM
- GI50 [9]: > 100 µM
- TGI [9]: > 100 µM
- GI50 [10]: > 100 µM
- TGI [10]: > 100 µM
- GI50 [11]: > 100 µM
- TGI [11]: > 100 µM
- GI50 [12]: > 100 µM
- TGI [12]: > 100 µM
- GI50 [13]: > 100 µM
- TGI [13]: > 100 µM
- GI50 [14]: > 100 µM
- TGI [14]: > 100 µM
- GI50 [15]: > 100 µM
- TGI [15]: > 100 µM
- GI50 [16]: > 100 µM
- TGI [16]: > 100 µM
- GI50 [17]: > 100 µM
- TGI [17]: > 100 µM
- GI50 [18]: > 100 µM
- TGI [18]: > 100 µM
- GI50 [19]: > 100 µM
- TGI [19]: > 100 µM
- GI50 [20]: > 100 µM
- TGI [20]: > 100 µM
- GI50 [21]: > 100 µM
- TGI [21]: > 100 µM
- GI50 [22]: > 100 µM
- TGI [22]: > 100 µM
- GI50 [23]: > 100 µM
- TGI [23]: > 100 µM
- GI50 [24]: > 100 µM
- TGI [24]: > 100 µM
- GI50 [25]: > 100 µM
- TGI [25]: > 100 µM
- GI50 [26]: > 100 µM
- TGI [26]: > 100 µM
- GI50 [27]: > 100 µM
- TGI [27]: > 100 µM
- GI50 [28]: > 100 µM
- TGI [28]: > 100 µM
- GI50 [29]: > 100 µM
- TGI [29]: > 100 µM
- GI50 [30]: > 100 µM
- TGI [30]: > 100 µM
- GI50 [31]: > 100 µM
- TGI [31]: > 100 µM
- GI50 [32]: > 100 µM
- TGI [32]: > 100 µM
- GI50 [33]: > 100 µM
- TGI [33]: > 100 µM
- GI50 [34]: > 100 µM
- TGI [34]: > 100 µM
- GI50 [35]: > 100 µM
- TGI [35]: > 100 µM
- GI50 [36]: > 100 µM
- TGI [36]: > 100 µM
- GI50 [37]: > 100 µM
- TGI [37]: > 100 µM
- GI50 [38]: > 100 µM
- TGI [38]: > 100 µM
- GI50 [39]: > 100 µM
- TGI [39]: > 100 µM
- GI50 [40]: > 100 µM
- TGI [40]: > 100 µM
- GI50 [41]: > 100 µM
- TGI [41]: > 100 µM
- GI50 [42]: > 100 µM
- TGI [42]: > 100 µM
- GI50 [43]: > 100 µM
- TGI [43]: > 100 µM
- GI50 [44]: > 100 µM
- TGI [44]: > 100 µM
- GI50 [45]: > 100 µM
- TGI [45]: > 100 µM
- GI50 [46]: > 100 µM
- TGI [46]: > 100 µM
- GI50 [47]: > 100 µM
- TGI [47]: > 100 µM
- GI50 [48]: > 100 µM
- TGI [48]: > 100 µM
- GI50 [49]: > 100 µM
- TGI [49]: > 100 µM
- GI50 [50]: > 100 µM
- TGI [50]: > 100 µM
- GI50 [51]: > 100 µM
- TGI [51]: > 100 µM
- GI50 [52]: > 100 µM
- TGI [52]: > 100 µM
- GI50 [53]: > 100 µM
- TGI [53]: > 100 µM
- GI50 [54]: > 100 µM
- TGI [54]: > 100 µM
